Measured values published in US4900539A, “Radiohalogenated thienylethylamine derivatives for evaluating local cerebral blood flow” (The United States of America as represented by the United …, priority 1988, dated 1990).

Columns and labels:
[1] = Tissue distribution of 5-halothiophene-2-isopropylamines in Fisher rats (brain uptake and brain:blood); format: in vivo; conditions: for tissue uptake at 5 min / tissue uptake at 0.5 h / tissue uptake at 1 h: rat, brain, read-out: Mean Brain, % Dose/gm
Source text: TISSUE DISTRIBUTION OF 5-HALOTHIOPHENE-
Mean Brain, % Dose/gm (Mean Brain:Blood)

[2] = IMP versus HIPDM, cited from earlier work

| SMILES | brain uptake and retention (in words) [1] | Mean Brain:Blood ([1]; 5 min) | Mean Brain:Blood ([1]; 30 min) | Mean Brain:Blood ([1]; 60 min) | tissue uptake at 5 min ([1]; 5 min) | tissue uptake at 0.5 h ([1]; 30 min) | tissue uptake at 1 h ([1]; 60 min) | brain-to-blood ratios (in words) [1] | lung clearance relative to HIPDM [2] | amount of activity in the brain relative to HIPDM ([2]; five minutes after administration) |
| --- | --- | --- | --- | --- | --- | --- | --- | --- | --- | --- |
| CC(N)Cc1ccc([82Br])s1 (centres unmarked) [Br--82] | good brain uptake and retention | 10.4 | 4.1 | 2.2 | 2.7 %ID/g | 2.3 %ID/g | 1.67 %ID/g | – | – | – |
| CC(N)Cc1ccc([125I])s1 (centres unmarked) [I--125] | high brain uptake and good retention | 6.0 | 3.7 | 2.1 | 2.77 %ID/g | 2.51 %ID/g | 1.42 %ID/g | high brain-to-blood ratios | – | – |
| CC(C)NC(C)Cc1ccc(I)cc1 (centres unmarked) [IMP, N-isopropyl-p-iodoamphetamine] | – | – | – | – | – | – | – | – | clears the lungs faster | almost twice the amount of activity in the brain |
